Data from patent US20250163122A1, “COMPOSITIONS AND METHODS FOR TREATING AIRWAY MUCUS DYSFUNCTION” (BOARD OF REGENTS, THE UNIVERSITY OF TEXAS SYSTEM, priority 2022, published 2025).
Where a SMILES comes first, the peptide text is derived from it. Bridges are numbered along the chain shown (N, C = ends). [ ]: non-standard residue; d: D form. S5 = C=CCCC[C@](C)(N)C(=O)O

Tests used:
Syt1 C2B = Syt1 C2B (Rattus norvegicus, UniProt P21707); experiment: Bulk fluorescence anisotropy binding, Syt1 C2B; details: Cy3 labeled peptide
Chain of Syt1 C2B (P21707 271-421): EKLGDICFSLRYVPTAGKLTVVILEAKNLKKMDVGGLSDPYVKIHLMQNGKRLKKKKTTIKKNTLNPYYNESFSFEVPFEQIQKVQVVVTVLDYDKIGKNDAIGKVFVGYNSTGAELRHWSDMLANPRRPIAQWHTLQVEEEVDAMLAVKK
Experimental: (§1) Bulk fluorescence anisotropy measurements. In the bulk fluorescence anisotropy experiments, the P0 and SP9 peptides were labeled with the fluorescent dye Cy3 at the C-terminus. Anisotropy was measured with a Tecan Infinite […] fluorimeter using an excitation wavelength of 530±5 nm and emission wavelength of 580±5 nm at 27.2° C. The fluorescent dye labeled samples were diluted to 10 nM concentration in TBS (20 mM Tris, pH 7.5, 150 mM NaCl, 0.5 mM TCEP) for optimal read out.

Syt2 C2B = Syt2 C2B (Rattus norvegicus, UniProt P29101); experiment: Bulk fluorescence anisotropy binding, Syt2 C2B; details: Cy3 labeled peptide
Chain of Syt2 C2B (P29101 272-422): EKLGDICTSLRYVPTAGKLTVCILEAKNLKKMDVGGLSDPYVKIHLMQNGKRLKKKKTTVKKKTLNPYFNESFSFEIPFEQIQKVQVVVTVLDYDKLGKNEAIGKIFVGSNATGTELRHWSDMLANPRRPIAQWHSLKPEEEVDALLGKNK
Experimental: as §1

[1] = biological target: T1, neuronal SNAREs and Syt1_QM (Rattus norvegicus, UniProt P21707, E295A/R281A/R398A/R399A/Y338W); experiment: Single vesicle content mixing assay, neuronal SNAREs and Syt1_QM; assay type: biochemical; details: 10 μM peptide, raw count; for Ca2+ triggered fusion events: 500 μM Ca2+
T1 construct: made in house
T1 sequence (P21707 whole entry R281A/E295A/Y338W/R398A/R399A, the tested form may be a part): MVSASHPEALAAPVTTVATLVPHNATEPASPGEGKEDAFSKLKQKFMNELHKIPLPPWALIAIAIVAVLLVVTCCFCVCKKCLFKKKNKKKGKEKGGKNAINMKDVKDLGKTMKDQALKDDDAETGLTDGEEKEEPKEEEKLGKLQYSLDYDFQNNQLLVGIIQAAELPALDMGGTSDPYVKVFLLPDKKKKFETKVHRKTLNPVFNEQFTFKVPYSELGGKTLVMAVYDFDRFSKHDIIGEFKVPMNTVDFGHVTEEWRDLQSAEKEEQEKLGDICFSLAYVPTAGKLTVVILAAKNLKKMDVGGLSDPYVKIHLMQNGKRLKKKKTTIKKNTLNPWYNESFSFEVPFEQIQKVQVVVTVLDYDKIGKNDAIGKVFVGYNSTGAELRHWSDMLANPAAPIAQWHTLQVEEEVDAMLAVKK
Text: (§2) For single vesicle content mixing assay, the lipid composition of the SV, SG, VAMP2, or VAMP8 vesicles was phosphatidylcholine (PC) (48%), phosphatidylethanolamine (PE) (20%), phosphatidylserine (PS) (12%), and cholesterol (20%); for both the neuronal and airway PM vesicles the lipid composition was Brain Total Lipid Extract supplemented 3.5 mol % PIP2, and 0.1 mol % biotinylated phosphatidylethanolamine (PE).
(§3) The reconstitution method for neuronal PM and SV vesicles was described in detail previously (see Lai et al., 2017; Kyoung et al., 2011; and Lai et al., 2014). The same methods were used for airway PM, SG, VAMP2, and VAMP8 vesicles. Dried lipid films were dissolved in 110 mM OG buffer containing purified proteins at protein-to-lipid ratios of 1:200 for VAMP2 and Stx1A for SV and neuronal PM vesicles, respectively (or 1:200 for VAMP8 and Stx3 for SG and airway PM vesicles, respectively), and 1:800 for Syt1 for SV vesicles (or 1:1200 for Syt2 for SG vesicles).
(§4) A 3-5 fold excess of SNAP-25A or SNAP-23 (with respect to Stx1A or Stx3) and 3.5 mol % PIP2 were added to the protein-lipid mixture for neuronal or airway PM vesicles. […] For the preparation of SV, SG, VAMP2, or VAMP8 vesicles for single vesicle content mixing assay, 50 mM sulforhodamine B (Thermo Fisher Scientific) was added to the protein-lipid mixture. The vesicles subsequently formed during size exclusion chromatography using a Sepharose CL-4B column, packed under near constant pressure by gravity with a peristaltic pump (GE Healthcare) in a 5.5 ml column with a ˜5 ml bed volume that was equilibrated with buffer V (20 mM HEPES, pH 7.4, 90 mM NaCl) supplemented with 20 μM EGTA and 0.1% 2-mercaptoethanol. The eluent was subjected to dialysis into 21 of detergent-free buffer V supplemented with 20 μM EGTA, 0.1% 2-mercaptoethanol, 5 g of Bio-beads SM2 (Bio-Rad) and 0.8 g/L Chelex 100 resin (Bio-Rad). After 4 hours, the buffer was exchanged with 21 of fresh buffer V supplemented with 20 μM EGTA, 0.1% 2-mercaptoethanol and Bio-beads, and the dialysis continued for another 12 h (overnight). […] For ensemble lipid mixing assay, the reconstitution method is the same as that for the single vesicle content mixing assay, except that 50 mM sulforhodamine B was omitted for all the steps.
(§5) Single vesicle content mixing experiments. All single vesicle fusion and single molecule experiments were performed on a prism-type total internal reflection fluorescence (TIRF) microscope using 532 nm (green) laser (CrystaLaser) excitation. Two observation channels were created by a 640 nm single-edge dichroic beamsplitter (FF640-FDi01-25x36, Shemrock): one channel was used for the fluorescence emission intensity of the content dyes and the other channel for that of the Cy5 dye that are part of the injected Ca^2+-solution. The two channels were recorded on two adjacent rectangular areas (45×90 m^2) of a charge-coupled device (CCD) camera (iXon+DV 897E, Andor Technology). The imaging data were recorded with the smCamera software developed by Taekjip Ha, Johns Hopkins University, Baltimore.
Flow chambers were assembled by creating a “sandwich” consisting of a quartz slide and a glass coverslip that were both coated with polyethylene glycol (PEG) molecules consisting 0.1% (w/v) biotinylated-PEG except when stated otherwise, and using double-sided tape to create up to five flow-chambers.
The single vesicle content mixing assay described in Lai et al. (2014) was used to monitor vesicle-vesicle association, Ca^2+-independent, and Ca^2+-triggered fusion. The surface of the quartz slides was passivated by coating the surface with polyethylene glycol (PEG) molecules which alleviated non-specific binding of vesicles. The same protocol and quality controls (surface coverage and non-specific binding) were used as described previously (Kyoung et al., 2011; Kyoung et al., 2012) except that PEG-SVA (Laysan Bio) instead of mPEG-SCM (Laysan Bio) was used since it has a longer half-life. […]

[2] = biological target: airway epithelial SNAREs, Syt2, Munc13-2*, Munc18-2, NSF, and αSNAP (Rattus norvegicus, UniProt P29101); experiment: Single vesicle content mixing assay, airway system with complete reconstitution; assay type: biochemical; details: for Ca2+ independent fusion events / Ca2+ triggered fusion events: Munc13-2* + 10 μM SP9, raw count
Chain of airway epithelial SNAREs, Syt2, Munc13-2*, Munc18-2, NSF, and αSNAP (P29101 whole entry, the tested form may be a part): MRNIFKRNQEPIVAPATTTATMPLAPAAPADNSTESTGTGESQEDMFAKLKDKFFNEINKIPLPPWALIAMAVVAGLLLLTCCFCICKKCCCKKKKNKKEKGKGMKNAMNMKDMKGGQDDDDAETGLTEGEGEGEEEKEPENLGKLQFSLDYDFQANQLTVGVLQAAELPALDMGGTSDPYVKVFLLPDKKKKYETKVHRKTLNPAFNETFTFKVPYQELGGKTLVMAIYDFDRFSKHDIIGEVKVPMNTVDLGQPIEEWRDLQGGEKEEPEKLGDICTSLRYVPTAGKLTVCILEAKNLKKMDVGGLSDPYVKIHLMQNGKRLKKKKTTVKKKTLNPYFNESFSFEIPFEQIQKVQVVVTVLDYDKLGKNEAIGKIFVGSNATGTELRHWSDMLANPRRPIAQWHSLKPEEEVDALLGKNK
Experimental: FIGS. 3A-3G show the effect of stapled peptides on fusion with complete airway system reconstitution according to certain aspects of this disclosure. […] PM: vesicles with reconstituted Stx3 and SNAP-23 that mimic the plasma membrane of epithelial cells; SM: vesicles with reconstituted Stx3/Munc18-2 complex; SG: mucin-containing secretory granules. 0.5 μM Munc13-2* fragment was added after formation of the SM vesicles and during all subsequent stages. 10 μM stapled peptide was added together with SG vesicles and was present during all subsequent stages. […] The fusion probabilities and amplitudes were normalized to the number of analyzed SG—airway PM vesicle pairs (see TABLE 4). FIGS. 3C, 3E, 3F, and 3G show means±SEM for multiple independent repeat experiments (see TABLE 2).
as §2, §3, §4
as §5, with “Baltimore. […]” for “Baltimore.”

EESKDAGIRTLVMLDEQGEQLD [Peptide P0, non-stapled SNAP-25A fragment used as a control, reference compound]
binding to C2B domain of Syt1 (Syt1 C2B): no binding
binding to C2B domain of Syt2 (Syt2 C2B): no binding

Ac-SKD(S5)GIR(S5)LVMLDE(S5)GEQ(S5)DR-amide (Ac-SKD[S5]GIR[S5]LVMLDE[S5]GEQ[S5]DR-NH2; staple 15-19, 4-8; SMILES CC[C@H](C)[C@@H]1NC(=O)CNC(=O)[C@@](C)(NC(=O)[C@H](CC(=O)O)NC(=O)[C@H](CCCCN)NC(=O)[C@H](CO)NC(C)=O)CCCC=CCCC[C@@](C)(C(=O)N[C@@H](CC(C)C)C(=O)N[C@H](C(=O)N[C@@H](CCSC)C(=O)N[C@@H](CC(C)C)C(=O)N[C@@H](CC(=O)O)C(=O)N[C@@H](CCC(=O)O)C(=O)N[C@@]2(C)CCCC=CCCC[C@@](C)(C(=O)N[C@@H](CC(=O)O)C(=O)N[C@@H](CCCNC(=N)N)C(N)=O)NC(=O)[C@H](CCC(N)=O)NC(=O)[C@H](CCC(=O)O)NC(=O)CNC2=O)C(C)C)NC(=O)[C@H](CCCNC(=N)N)NC1=O) [SP1]
Ca2+ triggered fusion events [1]: 282
Ca2+ independent fusion events [1]: 226

CC[C@H](C)[C@H](NC(=O)[C@]1(C)CCCC=CCCC[C@](C)(NC(=O)[C@H](CCC(=O)O)NC(=O)[C@H](CCC(=O)O)NC(C)=O)C(=O)N[C@@H](CCCCN)C(=O)N[C@@H](CC(=O)O)C(=O)N[C@@H](C)C(=O)N1)C(=O)N[C@@H](CCCNC(=N)N)C(=O)N[C@@]1(C)CCCC=CCCC[C@@](C)(C(=O)N[C@@H](CC(=O)O)C(=O)N[C@@H](CCC(=O)O)C(=O)N[C@@H](CCC(N)=O)C(=O)N[C@@H](CS)C(N)=O)NC(=O)[C@H](CCSC)NC(=O)[C@H](C(C)C)NC(=O)[C@H](CC(C)C)NC1=O [SP9, Ac-EE(S5)KDA(S5)IR(S5)LVM(S5)DEQC-amide] (Ac-EE[S5]KDA[S5]IR[S5]LVM[S5]DEQC-NH2; staple 3-7, 10-14)
Ca2+ triggered fusion events [1]: 260
Ca2+ independent fusion events [1]: 242
effect on Ca2+-independent fusion probability ([2]; 10 μM peptide): only moderately reduced
effect on vesicle association ([2]; 10 μM peptide): no effect
effect on Ca2+-triggered fusion amplitude, cumulative fusion probability and synchronization ([2]; 10 μM peptide, both 50 μM and 500 μM Ca2+): strongly inhibited
Ca2+ independent fusion events ([2]; 50 μM Ca2+ experiment): 23
Ca2+ triggered fusion events ([2]; 50 μM Ca2+): 89
Ca2+ independent fusion events ([2]; 500 μM Ca2+ experiment): 41
Ca2+ triggered fusion events ([2]; 500 μM Ca2+): 106

Ac-SKDA(S5)IRT(S5)VM(S5)DEQ(S5)EQL-amide (Ac-SKDA[S5]IRT[S5]VM[S5]DEQ[S5]EQL-NH2; staple 12-16, 5-9; SMILES CC[C@H](C)[C@@H]1NC(=O)[C@@](C)(NC(=O)[C@H](C)NC(=O)[C@H](CC(=O)O)NC(=O)[C@H](CCCCN)NC(=O)[C@H](CO)NC(C)=O)CCCC=CCCC[C@@](C)(C(=O)N[C@H](C(=O)N[C@@H](CCSC)C(=O)N[C@@]2(C)CCCC=CCCC[C@@](C)(C(=O)N[C@@H](CCC(=O)O)C(=O)N[C@@H](CCC(N)=O)C(=O)N[C@@H](CC(C)C)C(N)=O)NC(=O)[C@H](CCC(N)=O)NC(=O)[C@H](CCC(=O)O)NC(=O)[C@H](CC(=O)O)NC2=O)C(C)C)NC(=O)[C@H]([C@@H](C)O)NC(=O)[C@H](CCCNC(=N)N)NC1=O) [SP4]
Ca2+ triggered fusion events [1]: 248
Ca2+ independent fusion events [1]: 222

Ac-SKD(S5)GIR(S5)LV(S5)LDE(S5)GEQL-amide (Ac-SKD[S5]GIR[S5]LV[S5]LDE[S5]GEQL-NH2; staple 11-15, 4-8; SMILES CC[C@H](C)[C@@H]1NC(=O)CNC(=O)[C@@](C)(NC(=O)[C@H](CC(=O)O)NC(=O)[C@H](CCCCN)NC(=O)[C@H](CO)NC(C)=O)CCCC=CCCC[C@@](C)(C(=O)N[C@@H](CC(C)C)C(=O)N[C@H](C(=O)N[C@@]2(C)CCCC=CCCC[C@@](C)(C(=O)NCC(=O)N[C@@H](CCC(=O)O)C(=O)N[C@@H](CCC(N)=O)C(=O)N[C@@H](CC(C)C)C(N)=O)NC(=O)[C@H](CCC(=O)O)NC(=O)[C@H](CC(=O)O)NC(=O)[C@H](CC(C)C)NC2=O)C(C)C)NC(=O)[C@H](CCCNC(=N)N)NC1=O) [SP10]
Ca2+ triggered fusion events [1]: 367
Ca2+ independent fusion events [1]: 252
